From paper PMC3735939, “The low levels of eicosapentaenoic acid in rat brain phospholipids are maintained via multiple redundant mechanisms” (Journal of Lipid Research, 2013)

Assays:
[1] = cited from earlier work
[2] = In vivo kinetics of FA incorporation and turnover in brain phospholipids (intravenous radiotracer infusion, kinetic model); set-up: species or system rat
Description: Twenty-four hours postsurgery, a second catheter (iv catheter 24 gauge/0.75 inch, Angiocath™; Becton Dickinson) was implanted into the tail vein where rats received either vehicle or 10 mg/kg of MEP. […] The radiotracers were infused for 5 min via the tail vein catheter at a rate of 0.223(1 + e^−19.2t) ml/min (t is infusion time in minutes) ([37]) which achieves a steady-state plasma radioactivity within 1 min ([18], [38]). […] During the 5 min infusion, blood samples were collected from the jugular vein at approximately 0, 0.25, 0.5, 0.75, 1.5, 3, 4, and 5 min while the unanesthetized rat was mobile in the infusion box with food and water. […] After 5 min, the rats were rapidly euthanized by head-focused high-energy microwave irradiation (13.5 kW for 1.6 s; Cober Electronics Inc., Stratford, CT). The radiotracer infusions continued until rats were euthanized. The brain was excised and cut sagittally. Both hemispheres were stored at −80°C for radioactive and biochemical analyses. Plasma was isolated from whole blood via microcentrifugation at 6,200 rpm (2,000 g) for 5 min and stored at −80°C.
The model for in vivo kinetics of brain FAs in rats has been previously described ([17], [18], [21], [23], [25], [37], [41]).
Because the infusion is 5 min, contributions of FA from de novo synthesis and esterified plasma FA are negligible ([18], [20], [23], [41]); thus only contributions from plasma unesterified FAs and acyl-CoA pools were considered in the calculation of λpalmitate, DHA, or EPA .

[3] = Identification of radiolabeled FAs in brain phospholipids by HPLC and LSC after 14C-EPA infusion; type: in vivo, rat; conditions: for percent of total radiolabeled FAs: brain total phospholipids;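 as to radiolabeled FA composition: percent of radiolabeled FAs within each phospholipid class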
Description: (§1) Twenty-four hours postsurgery, a second catheter (iv catheter 24 gauge/0.75 inch, Angiocath™; Becton Dickinson) was implanted into the tail vein where rats received either vehicle or 10 mg/kg of MEP. Ten minutes post injection of vehicle or MEP, the tail vein catheter was connected to a syringe containing radiolabeled ^14C-palmitate (n = 8), ^14C-DHA (n = 6), or ^14C-EPA (n = 7) attached to a computer-controlled variable speed pump (PHD 22/2000; Harvard Apparatus, Holliston, MA). […] Each rat received a dose of 76 μCi ^14C-palmitate, 76 μCi ^14C-DHA, or 78 μCi ^14C-EPA. […] The radiotracer infusions continued until rats were euthanized. The brain was excised and cut sagittally. Both hemispheres were stored at −80°C for radioactive and biochemical analyses. Plasma was isolated from whole blood via microcentrifugation at 6,200 rpm (2,000 g) for 5 min and stored at −80°C. Total lipids from one brain hemisphere and from plasma were extracted by the method of Folch, Lees, and Sloane Stanley ([39]). Isolation of various neutral lipid and phospholipid classes from the total lipid extract was previously described by Chen, Liu, and Bazinet ([6]). FA methyl esters and radioactive acyl-CoA analysis were previously described by Chen, Liu, and Bazinet ([6]).

[4] = tested on: mitochondrial FA β-oxidation; experiment: Radioactivity in brain aqueous fraction (marker of β-oxidation) after 5 min intravenous 14C-tracer infusion; type: in vivo, rat; conditions: vehicle injection; 5 min iv infusion of tracer
Description: as §1, with “([6]).” for “([6]). FA methyl esters and radioactive acyl-CoA analysis were previously described by Chen, Liu, and Bazinet ([6]).”

[5] = Radioactivity in brain lipid fractions after 5 min intravenous 14C-tracer infusion (TLC, LSC); type: in vivo, rat; conditions: 14C-EPA-infused rats
Description: as §1

| SMILES | rate of loss from brain phospholipids [1] [% per day] | FFA rate of turnover ([2]; ChoGpl, MEP) [%/day] | JFA net incorporation rate from brain acyl-CoA ([2]; ChoGpl, MEP) | Jin net incorporation rate from plasma unesterified FA ([2]; ChoGpl, MEP) [nmol/g/day] | FFA rate of turnover ([2]; ChoGpl, Vehicle) [%/day] | JFA net incorporation rate from brain acyl-CoA ([2]; ChoGpl, Vehicle) | Jin net incorporation rate from plasma unesterified FA ([2]; ChoGpl, Vehicle) [nmol/g/day] | FFA rate of turnover ([2]; EtnGpl, MEP) [%/day] | JFA net incorporation rate from brain acyl-CoA ([2]; EtnGpl, MEP) | Jin net incorporation rate from plasma unesterified FA ([2]; EtnGpl, MEP) [nmol/g/day] | FFA rate of turnover ([2]; EtnGpl, Vehicle) [%/day] | JFA net incorporation rate from brain acyl-CoA ([2]; EtnGpl, Vehicle) | Jin net incorporation rate from plasma unesterified FA ([2]; EtnGpl, Vehicle) [nmol/g/day] | FFA rate of turnover ([2]; Total PL, MEP) [%/day] | JFA net incorporation rate from brain acyl-CoA ([2]; Total PL, MEP) | Jin net incorporation rate from plasma unesterified FA ([2]; Total PL, MEP) [nmol/g/day] | FFA rate of turnover ([2]; Total PL, Vehicle) [%/day] | JFA net incorporation rate from brain acyl-CoA ([2]; Total PL, Vehicle) | Jin net incorporation rate from plasma unesterified FA ([2]; Total PL, Vehicle) [nmol/g/day] | FFA rate of turnover ([2]; PtdIns, MEP) [%/day] | other results |
| --- | --- | --- | --- | --- | --- | --- | --- | --- | --- | --- | --- | --- | --- | --- | --- | --- | --- | --- | --- | --- | --- |
| CCCCC/C=C\C/C=C\C/C=C\C/C=C\CCCC(=O)O [ARA, arachidonic acid] | 2 |  |  |  |  |  |  |  |  |  |  |  |  |  |  |  |  |  |  |  |  |
| CC/C=C\C/C=C\C/C=C\C/C=C\C/C=C\C/C=C\CCC(=O)SCCNC(=O)CCNC(=O)[C@H](O)C(C)(C)COP(=O)(O)OP(=O)(O)OC[C@H]1O[C@@H](n2cnc3c(N)ncnc32)[C@H](O)[C@@H]1OP(=O)(O)O [DHA-CoA] |  |  |  |  |  |  |  |  |  |  |  |  |  |  |  |  |  |  |  |  | t1/2 half-life ([2]; Total PL, Vehicle): about 1 day; JFA into brain total phospholipids, fold higher than EPA-CoA ([2]; vehicle injection): 154 fold |
| CC/C=C\C/C=C\C/C=C\C/C=C\C/C=C\C/C=C\CCC(=O)O [EPA→DHA] |  | 0.070 ± 0.01 | 0.98 ± 0.14 nmol/g/day | 0.23 ± 0.02 | 0.30 ± 0.035 | 3.8 ± 0.54 nmol/g/day | 0.46 ± 0.089 | 0.054 ± 0.017 | 3.1 ± 0.81 nmol/g/day | 0.71 ± 0.1 | 0.13 ± 0.023 | 7.6 ± 1.5 nmol/g/day | 0.92 ± 0.22 | 0.022 ± 0.0035 | 1.9 ± 0.3 nmol/g/day | 0.45 ± 0.044 | 0.091 ± 0.0089 | 7.9 ± 0.97 nmol/g/day | 1.0 ± 0.19 |  |  |
| CC/C=C\C/C=C\C/C=C\C/C=C\C/C=C\CCCCCC(=O)O [EPA→n-3 DPA] |  | 178 ± 41 | 6.2 ± 0.91 nmol/g/day | 1.4 ± 0.12 | 192 ± 25 | 6.5 ± 0.92 nmol/g/day | 0.79 ± 0.15 | 153 ± 44 | 13 ± 3.5 nmol/g/day | 3.0 ± 0.43 | 147 ± 30 | 12 ± 2.5 nmol/g/day | 1.5 ± 0.36 | 149 ± 35 | 21 ± 3.3 nmol/g/day | 5.0 ± 0.49 | 123 ± 34 | 18 ± 2.2 nmol/g/day | 2.2 ± 0.44 | 260 ± 113 | JFA net incorporation rate from brain acyl-CoA ([2]; PtdIns, MEP): 1.6 ± 0.77 nmol/g/day; Jin net incorporation rate from plasma unesterified FA ([2]; PtdIns, MEP): 0.39 ± 0.22 nmol/g/day; FFA rate of turnover ([2]; PtdIns, Vehicle): 336 ± 62 %/day; JFA net incorporation rate from brain acyl-CoA ([2]; PtdIns, Vehicle): 2.3 ± 0.1 nmol/g/day; Jin net incorporation rate from plasma unesterified FA ([2]; PtdIns, Vehicle): 0.27 ± 0.045 nmol/g/day; FFA rate of turnover ([2]; PtdSer, MEP): 20 ± 3.6 %/day; JFA net incorporation rate from brain acyl-CoA ([2]; PtdSer, MEP): 1.1 ± 0.11 nmol/g/day; Jin net incorporation rate from plasma unesterified FA ([2]; PtdSer, MEP): 0.25 ± 0.05 nmol/g/day; FFA rate of turnover ([2]; PtdSer, Vehicle): 31 ± 11 %/day; JFA net incorporation rate from brain acyl-CoA ([2]; PtdSer, Vehicle): 1.8 ± 0.45 nmol/g/day; Jin net incorporation rate from plasma unesterified FA ([2]; PtdSer, Vehicle): 0.21 ± 0.068 nmol/g/day |
| CCCCCCCCCCCCCCCC(=O)O [Palmitate, [1-14C]palmitate] | 2 | 53 ± 13 | 12,720 ± 3,120 nmol/g/day |  | 84 ± 33 | 20,713 ± 9,692 nmol/g/day |  | 110 ± 37 | 3,062 ± 1,011 nmol/g/day |  | 161 ± 66 | 4,926 ± 2,623 nmol/g/day |  | 80 ± 30 | 19,285 ± 6,630 nmol/g/day |  | 127 ± 57 | 32,728 ± 17,692 nmol/g/day |  | 311 ± 135 | radiolabeled FA composition ([3]; ChoGpl, MEP-treated rats): 3%; radiolabeled FA composition ([3]; ChoGpl, vehicle-treated rats): 6%; percent of total radiolabeled FAs ([3]; MEP-treated rats): 2%; percent of total radiolabeled FAs ([3]; vehicle-treated rats): 4%; radioactivity of brain aqueous fraction [4]: 17 nCi/g brain; Jin into diacylglycerol ([2]; MEP): 238 ± 34 nmol/g/day; Jin into triacylglycerol ([2]; MEP): 276 ± 19 nmol/g/day; JFA net incorporation rate from brain acyl-CoA ([2]; PtdIns, MEP): 2,443 ± 1,153 nmol/g/day; FFA rate of turnover ([2]; PtdIns, Vehicle): 292 ± 80 %/day; JFA net incorporation rate from brain acyl-CoA ([2]; PtdIns, Vehicle): 2,679 ± 1,655 nmol/g/day; FFA rate of turnover ([2]; PtdSer, MEP): 261 ± 194 %/day; JFA net incorporation rate from brain acyl-CoA ([2]; PtdSer, MEP): 849 ± 562 nmol/g/day; FFA rate of turnover ([2]; PtdSer, Vehicle): 356 ± 259 %/day; JFA net incorporation rate from brain acyl-CoA ([2]; PtdSer, Vehicle): 1,253 ± 792 nmol/g/day; Jin into diacylglycerol ([2]; vehicle): 106 ± 19 nmol/g/day; Jin into triacylglycerol ([2]; vehicle): 140 ± 23 nmol/g/day; Jout net rate of loss from brain phospholipids [1]: 469 nmol/g/day |
| CC/C=C\C/C=C\C/C=C\C/C=C\C/C=C\CCCCCC(=O)O [n-3 DPA, n-3 docosapentaenoic acid] |  |  |  |  |  |  |  |  |  |  |  |  |  |  |  |  |  |  |  |  | radiolabeled FA composition ([3]; ChoGpl, MEP-treated rats): 26%; radiolabeled FA composition ([3]; ChoGpl, vehicle-treated rats): 18%; radiolabeled FA composition ([3]; EtnGpl, MEP-treated rats): 61%; radiolabeled FA composition ([3]; EtnGpl, vehicle-treated rats): 47%; percent of total radiolabeled FAs ([3]; MEP-treated rats): 38%; percent of total radiolabeled FAs ([3]; vehicle-treated rats): 24%; esterification of radiolabeled FA into brain total phospholipids ([5]; MEP): 8.3 ± 0.2 nCi/g brain; esterification of radiolabeled FA into brain total phospholipids ([5]; vehicle): 4.1 ± 0.2 nCi/g brain |
